A short description of series [1]: Water solubility of the cyanine dye. The class given is physicochemical. The text has this:
For fluorescence of the polymers in solution, J-aggregate fluorescence became prominent for polymers having at least 33 cationic polymer repeat units. The fluorescence of the polymer is subject to very strong “super-quenching” by oppositely charged electron acceptors and energy-transfer quenchers that equals or exceeds that observed for conjugated polyelectrolytes by the same kind of quenchers. […] In exemplary embodiments, a cyanine dye of formula I, below, is used.

Series [2] can be described thus: Hyaluronidase activity, scaffold destruction fluorescent assay. The series is classed as biochemical. As to conditions: hyaluronic acid substrate; estimated from maximal fluorescence of unreacted mix. Here is the method:
Hyaluronidase enzyme (11.3 U of E.C. 3.2.1.35) was mixed with 8 μg of hyaluronic acid in a total volume of 500 μL at 25° C. After 0, 20, 40, 60, 80, 100, 120 and 140 minutes, a portion of the reaction mixture was diluted into 20 μM concentrations of cyanine dye of Formula I dissolved in 20% methanol-80% water mixture dispensed into the wells of a 96 well microplate (Optiplate™-96, Perkin Elmer Life Sciences, Boston, Mass.) to a total volume of 275 μL. Sixty minutes after adding the reaction mixture to the cyanine solution, the fluorescence was measured using a Mithras LB 940 microplate spectrofluorometer (Berthold Instruments, Oak Ridge, Tenn.). The enzymatic reaction volume that was added to the cyanine dye solution represented approximately 364 ng of intact hyaluronic acid that might be present in the complete absence of enzymatic hydrolysis. This amount of hyaluronic was equivalent to the mid-point in the rise of the hyaluronic titration curve in FIG. 23. […] Hyaluronic acid in amounts of 0, 200, 400, 600, 800 and 1000 ng respectively were mixed with 1 U of hyaluronidase in a total volume of 100 μL. […] Based upon maximal fluorescence from reactions in which the enzyme and substrate were mixed but not allowed to react, it was estimated that hyaluronidase activity level reached a plateau between 60 to 80 minutes, representing 50% hydrolysis of the substrate.

The source of these data is patent publication US20080044805A1, “Biopolymer-Dye Complex and Use as a Bioassay” (STC.UNM, priority 2006, published 2008).

On to `CCN1C(=Cc2sc3ccc(Cl)cc3[n+]2CC)Sc2ccc(Cl)cc21.[I-]` [cyanine dye of Formula I], for which the water solubility result in series [1] is “moderate”.

As to hyaluronidase, in series [2], the “hydrolysis of the substrate at plateau” value is recorded as 50%.
